Data published in patent US8765786B2, “1-substituted indazole derivative” (Dainippon Sumitomo Pharma Co., Ltd., priority 2012, dated 2014).

Key:
Slc: ddY mice = assay: Novel object recognition test in mice (mORT); format: in vivo
Experimental: Slc: ddY mice (25 g to 30 g, male, Japan SLC) can be used in the novel object recognition test wherein the interval between the 1st trial (training) and the 2nd trial (test) correlates with the memory loss for the objects used in the 1st trial, and a significant memory-loss is observed when the 2nd trial is performed 24 hours after the 1st trial. According to the test mechanism, the present compounds were administered prior to the 1st trial, and the enhancement effect on memory in the 2nd trial was evaluated.

[1] = molecular target: T1, hERG (human ether-a-go-go) potassium current (Homo sapiens, UniProt Q12809); assay: hERG inhibition test (whole-cell patch clamp, QPatch HT, CHO cells); format: cell-based; conditions: room temperature
T1 construct: expressed in transfected cells; host or cells: CHO cells
Experimental: The hERG (human ether-a-go-go) potassium current in CHO cells which stably express hERG gene was recorded by whole-cell patch clamping technique using an automated patch clamp system, QPatch HT (Sophion Bioscience A/S). Inducing the hERG current, the membrane potential was held at −80 mV in voltage clamp mode, and then depolarized to −50 mV for 20 msec and then +20 mV for 5 sec. Then, the membrane potential was repolarized to −50 mV for 5 sec and the tail current amplitude was measured. The stimulation was given at a frequency of every 15 seconds, and the experiment was carried out at room temperature (22±2° C.) The compound was cumulatively administered to each cell in 4 concentrations, wherein the administration was done over 5 minutes in each concentration. The inhibition percentage of the inhibited current was calculated by comparing the current intensities before and after the compound was given in each concentration. According to Hill equation, each 50% inhibitory concentration was calculated (IC50 [μmol/L]). The test solutions used herein were as follows: extracellular solution (mmol/L): 2 CaCl2, 1 MgCl2, 10 HEPES, 4 KCl, 145 NaCl, 10 glucose,
intracellular solution (mmol/L): […], 1.8 MgCl2, 10 HEPES, 31 KOH, 10 EGTA, 120 KCl, 4 ATP

Slc: Wistar rats = assay: Y-shaped maze test in rats, scopolamine-induced cognitive impairment; format: in vivo; conditions: 0.6 mg/kg scopolamine HBr s.c.
Experimental: In Y-maze test, 0.6 mg/kg scopolamine HBr (cat#S0929, Sigma Aldrich, Japan) can be subcutaneously administered to Slc: Wistar rats (280 g to 300 g, male, Japan SLC) to cause cognitive impairment and decrease the percentage of alternation behavior. According to the test mechanism, the present compounds were treated prior to the administration of scopolamine, and the improvement effect on cognitive impairment was evaluated.

human α7 nAChR = molecular target: T2, human α7 nAChR (Homo sapiens, UniProt P36544); assay: Evaluation of PAM activity with human α7 nACh receptor stably expressing cells (aequorin luminescence, FDSS7000); format: cell-based; conditions: for activity at 10 µM / α7PAM (%) @ 10 μmol/L: test compound 10 μmol/L, ACh added at EC20, ratio of RLU (Max-Min) of test wells to control wells; for activity at 10 µM: read-out: α7PAM (%) @ 10 μmol/L; for PAM activity for α7 nAChR: result in words, ratio of RLU (Max-Min) to control wells, ACh EC20
T2 construct: expressed in transfected cells; host or cells: GH4C1 cells derived from rat pituitary (ATCC CCL-82.2)
Summary of the method: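 Rat pituitary GH4C1 cells stably expressing human α7 nAChR and aequorin, loaded 4 h at room temperature with 4 μmol/L substrate, in Hanks/20 mM HEPES pH 7.4. After compound then ACh addition, 465 nm luminescence recorded 138 s; PAM activity is RLU (Max-Min) ratio to control wells.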

[2] = Measurement of brain penetration; format: in vivo; conditions: LC-MS/MS of plasma and brain homogenates; for Kp: read-out: concentration ratio of the brain to the plasma
Excerpt: The plasma and brain homogenates were deproteinized with methanol and then centrifuged. The supernatant was filtered, and the obtained sample was quantified with LC-MS/MS to calculate the concentration of the plasma and brain.

Rat PK test = format: in vivo; conditions: plasma, rats, intravenous and oral administration
Experimental: The present compound was administered intravenously in saline solution or orally in methylcellulose solution to 7 weeks old rats, and their blood was collected according to the following schedule:
(intravenous administration) 5 minutes, 15 minutes, 30 minutes, 1 hour, 2 hours, 4 hours, 6 hours and 24 hours after the administration
(oral administration) 15 minutes, 30 minutes, 1 hour, 2 hours, 4 hours, 6 hours and 24 hours after the administration
The collected blood was centrifuged at 3000 rpm for 10 minutes in a refrigerated centrifuge set at 4° C. The obtained plasma was measured with a HPLC to give a time curve of plasma level, thereby calculating the pharmacokinetic parameters.

T2 sequence (P36544 23-502): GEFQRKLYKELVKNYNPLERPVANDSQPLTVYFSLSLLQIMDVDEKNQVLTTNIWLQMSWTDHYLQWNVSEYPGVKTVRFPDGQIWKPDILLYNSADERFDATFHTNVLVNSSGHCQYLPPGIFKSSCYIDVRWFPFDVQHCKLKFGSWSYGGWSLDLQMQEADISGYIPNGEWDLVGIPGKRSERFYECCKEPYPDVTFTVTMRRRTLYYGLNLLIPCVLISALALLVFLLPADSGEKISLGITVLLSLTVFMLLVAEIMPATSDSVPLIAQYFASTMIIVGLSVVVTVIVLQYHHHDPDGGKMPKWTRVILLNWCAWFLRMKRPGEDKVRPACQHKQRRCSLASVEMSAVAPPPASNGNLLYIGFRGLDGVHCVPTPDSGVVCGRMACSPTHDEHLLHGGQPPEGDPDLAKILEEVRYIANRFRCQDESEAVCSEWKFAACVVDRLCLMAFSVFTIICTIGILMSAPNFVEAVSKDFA
T1 sequence (Q12809 whole entry): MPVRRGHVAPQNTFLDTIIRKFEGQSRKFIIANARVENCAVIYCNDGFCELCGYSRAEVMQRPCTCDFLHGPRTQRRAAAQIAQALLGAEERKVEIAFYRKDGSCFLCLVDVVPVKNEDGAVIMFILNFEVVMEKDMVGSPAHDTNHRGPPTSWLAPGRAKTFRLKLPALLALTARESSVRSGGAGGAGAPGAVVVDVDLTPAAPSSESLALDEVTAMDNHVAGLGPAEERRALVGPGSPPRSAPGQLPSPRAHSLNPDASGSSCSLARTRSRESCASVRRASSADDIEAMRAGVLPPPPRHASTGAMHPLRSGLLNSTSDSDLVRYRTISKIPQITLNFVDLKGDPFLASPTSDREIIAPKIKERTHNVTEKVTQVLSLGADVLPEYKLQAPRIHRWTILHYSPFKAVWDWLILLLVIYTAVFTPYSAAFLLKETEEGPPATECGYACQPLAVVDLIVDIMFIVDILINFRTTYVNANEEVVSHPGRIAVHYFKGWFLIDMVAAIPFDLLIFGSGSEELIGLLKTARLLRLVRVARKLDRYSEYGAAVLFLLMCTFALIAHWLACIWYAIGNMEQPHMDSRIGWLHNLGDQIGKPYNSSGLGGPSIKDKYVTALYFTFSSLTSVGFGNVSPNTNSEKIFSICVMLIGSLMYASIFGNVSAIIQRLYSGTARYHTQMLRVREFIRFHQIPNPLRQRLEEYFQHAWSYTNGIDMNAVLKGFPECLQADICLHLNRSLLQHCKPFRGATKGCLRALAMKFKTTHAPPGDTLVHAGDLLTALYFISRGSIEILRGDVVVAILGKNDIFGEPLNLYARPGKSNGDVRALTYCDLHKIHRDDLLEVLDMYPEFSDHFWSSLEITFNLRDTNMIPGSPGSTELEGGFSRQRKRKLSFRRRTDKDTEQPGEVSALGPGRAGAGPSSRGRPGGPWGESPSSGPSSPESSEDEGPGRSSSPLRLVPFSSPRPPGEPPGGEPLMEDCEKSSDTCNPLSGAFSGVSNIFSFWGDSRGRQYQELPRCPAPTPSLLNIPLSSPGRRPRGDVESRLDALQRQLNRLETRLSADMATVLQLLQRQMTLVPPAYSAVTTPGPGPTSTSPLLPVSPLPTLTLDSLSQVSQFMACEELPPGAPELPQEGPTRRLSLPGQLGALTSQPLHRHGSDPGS

| SMILES | α7PAM (%) @ 10 μmol/L (human α7 nAChR) | also measured |
| --- | --- | --- |
| CO[C@H]1CC[C@H](NC(=O)N2CCC(n3ncc4cc(C5CC5)ccc43)CC2)CC1 [Example 74, 4-(5-cyclopropyl-1H-indazol-1-yl)-N-(trans-4-methoxycyclohexyl)piperidine-1-carboxamide] |  | minimum effective dose (Slc: ddY mice; administered prior to 1st trial, 2nd trial 24 hours later): 0.1 mg/kg; efficacy at higher doses (Slc: ddY mice; dose of 0.3 mg/kg, 1.0 mg/kg or 3 mg/kg): efficacy did not decrease; IC50 [1]: 13.2 µM; dose from which cognitive function was significantly improved (Slc: Wistar rats): 0.3 mg/kg |
| CCc1cccc2c1cnn2C1CCN(C(=O)N[C@H]2CC[C@H](OC)CC2)CC1 [Example 66, 4-(4-ethyl-1H-indazol-1-yl)-N-(trans-4-methoxycyclohexyl)piperidine-1-carboxamide] |  | dose at which efficacy was shown (Slc: ddY mice): 1 mg/kg; activity at 10 µM (human α7 nAChR): 466% |
| COc1nn(C2CCN(C(=O)NC3CCCCC3)CC2)c2ccc(C)cc12 [Example 258] | 941% | IC50 [1]: 47.3 µM; concentration ratio of the brain to the plasma [2]: 1.55 |
| CO[C@H]1CC[C@H](NC(=O)N2CCC(n3ncc4cc(C(F)(F)F)ccc43)CC2)CC1 [Example 163, N-(trans-4-methoxycyclohexyl)-4-[5-(trifluoromethyl)-1H-indazol-1-yl]piperidine-1-carboxamide] |  | activity at 10 µM (human α7 nAChR): 318%; bioavailability (Rat PK test): 41%; Kp [2]: 2.01 |
| O=C(NC1CCOCC1)N1CCC(n2ncc3cc(OC(F)(F)F)ccc32)CC1 [Example 227, N-(tetrahydro-2H-pyran-4-yl)-4-[5-(trifluoromethoxy)-1H-indazol-1-yl]piperidine-1-carboxamide] |  | activity at 10 µM (human α7 nAChR): 768%; bioavailability (Rat PK test): 69%; Kp [2]: 1.92 |
| COc1c(C2CC2)ccc2c1cnn2C1CCN(C(=O)N[C@H]2CC[C@H](OC)CC2)CC1 [Example 263, 4-(5-cyclopropyl-4-methoxy-1H-indazol-1-yl)-N-(trans-4-methoxycyclohexyl)piperidine-1-carboxamide] |  | activity at 10 µM (human α7 nAChR): 749% |
| CCOc1ccc2c(cnn2C2CCN(C(=O)NC3CCCC3)CC2)c1 [Example 17] | 2469% | PAM activity for α7 nAChR (human α7 nAChR): stronger PAM activity than others |
| CCc1ccc2c(cnn2[C@H]2CC[C@@H](C(=O)NC3CCCC3)CC2)c1 [Example 128] | 429% |  |
| COc1ccc(C2(NC(=O)N3CCC(n4ncc5cc(C6CC6)ccc54)CC3)CC2)cc1 [Example 206] | 196% |  |
| COc1c(C2CC2)ccc2c1cnn2C1CCN(C(=O)NC2CCOCC2)CC1 [Example 303] | 1058% |  |
| O=C(NC1CCC(F)(F)CC1)N1CCC(n2ncc3c(C(F)(F)F)cccc32)CC1 [Example 169] | 359% |  |
| O=C(NC1CCC(F)(F)CC1)N1CCC(n2ncc3c(OC(F)F)cccc32)CC1 [Example 201] | 370% |  |
| CCc1ccc2c(cnn2[C@H]2CC[C@@H](C(=O)NC3CCC(OC)CC3)CC2)c1 (stereo partly drawn) [Example 130] | 252% |  |
| CCOc1nn(C2CCN(C(=O)NC3CCOCC3)CC2)c2ccc(C(F)(F)F)cc12 [Example 267] | 292% |  |
| COC1CCC(NC(=O)N2CCC(n3ncc4cc(Br)ccc43)CC2)CC1 (stereo not drawn) [Example 71] | 763% |  |
| CCOC1CCC(NC(=O)N2CCC(n3ncc4c(C)cccc43)CC2)CC1 (stereo not drawn) [Example 96] | 143% |  |
| O=C(NC1CCC(F)(F)CC1)N1CCC(n2ncc3cc(Cl)ccc32)CC1 [Example 34, 4-(5-chloro-1H-indazol-1-yl)-N-(4,4-difluorocyclohexyl)piperidine-1-carboxamide] |  | activity at 10 µM (human α7 nAChR): 445% |
| O=C(C1CCOCC1)N1CCC(n2ncc3cc(C4CC4)ccc32)CC1 [Example 140] | 265% |  |
| COc1ccc2c(cnn2C2CCN(C(=O)NC3CCCCC3)CC2)c1 [Example 40] | 3205% | PAM activity for α7 nAChR (human α7 nAChR): stronger PAM activity than others |
| COC1CCC(NC(=O)N2CCC(n3ncc4c(C)cccc43)CC2)CC1 (stereo not drawn) [Example 95] | 133% |  |
| COC1CCC(NC(=O)N2CCC(n3ncc4c(C)cccc43)CC2)CC1 (stereo not drawn) [Example 94] | 154% |  |

| SMILES | α7PAM (%) @ 10 μmol/L (human α7 nAChR) | also measured |
| --- | --- | --- |
| CC(C)c1ccc2c(cnn2C2CCN(C(=O)NC3CCOCC3)CC2)c1 [Example 14] | 728% |  |
| CCc1nn(C2CCN(C(=O)NC3CCC(F)(F)CC3)CC2)c2ccc(OC)cc12 [Example 241] | 358% |  |
| CCc1c(OC)ccc2c1cnn2C1CCN(C(=O)NC2CCOCC2)CC1 [Example 289] | 255% |  |
| COCCCc1ccc2c(cnn2C2CCN(C(=O)NC3CCC(F)(F)CC3)CC2)c1 [Example 26] | 521% |  |
| CCc1ccc2c(cnn2[C@H]2CC[C@@H](NC(=O)C3CCC(F)(F)CC3)CC2)c1 [Example 4, N-(cis-4-(5-ethyl-1H-indazol-1-yl)cyclohexyl)-4,4-difluorocyclohexanecarboxamide] |  | PAM activity for α7 nAChR (human α7 nAChR): stronger PAM activity than others |
| COc1cccc2c1cnn2C1CCN(C(=O)NC2CCCCC2)CC1 [Example 181] | 538% |  |
| COC(C)c1cccc2c1cnn2C1CCN(C(=O)NC2CCC(F)(F)CC2)CC1 (stereo not drawn) [Example 231] | 647% |  |
| CCc1ccc2c(cnn2C2CCN(C(=O)NC3CCOCC3)CC2)c1 [Example 24] | 745% |  |
| O=C(NC1CCOCC1)N1CCC(n2ncc3cc(OC(F)F)ccc32)CC1 [Example 292] | 413% |  |
| CO[C@H]1CC[C@@H](NC(=O)N2CCC(n3ncc4cc(C5CC5)ccc43)CC2)CC1 [Example 189] | 257% |  |
| CCc1ccc2c(cnn2C2CCN(C(=O)NC3CCC(F)(F)CC3)CC2)c1OC [Example 256] | 1668% |  |
| CCc1nn(C2CCN(C(=O)NC3CCC(F)(F)CC3)CC2)c2ccccc12 [Example 53] | 309% |  |
| CCc1ccc2c(cnn2[C@H]2CC[C@@H](C(=O)NC3CCC(F)(F)CC3)CC2)c1 [Example 6, cis-N-(4,4-difluorocyclohexyl)-4-(5-ethyl-1H-indazol-1-yl)cyclohexanecarboxamide] |  | activity at 10 µM (human α7 nAChR): 285% |
| CCc1nn(C2CCN(C(=O)NC3CCOCC3)CC2)c2ccc(C)cc12 [Example 43] | 528% |  |
| CCOc1ccc2c(cnn2C2CCN(C(=O)NC3CCOCC3)CC2)c1 [Example 19] | 306% |  |
| CCc1nn(C2CCN(C(=O)NC3CCC(F)(F)CC3)CC2)c2ccc(C)cc12 [Example 42, N-(4,4-difluorocyclohexyl)-4-(3-ethyl-5-methyl-1H-indazol-1-yl)piperidine-1-carboxamide] |  | activity at 10 µM (human α7 nAChR): 241% |
| COCc1c(C)ccc2c1cnn2C1CCN(C(=O)NC2CCC(F)(F)CC2)CC1 [Example 213] | 800% |  |
| O=C(NC1CCC(F)(F)CC1)N1CCC(n2ncc3c(F)cccc32)CC1 [Example 190] | 256% |  |
| [2H]C([2H])([2H])O[C@H]1CC[C@H](NC(=O)N2CCC(n3ncc4cc(C([2H])([2H])[2H])ccc43)CC2)CC1 [Example 308] | 1021% |  |
| O=C(C1CCOCC1)N1CCC(n2ncc3cc(Br)ccc32)CC1 [Example 102] | 228% |  |
| [2H]C([2H])([2H])c1ccc2c(cnn2C2CCN(C(=O)NC3CCC(OCC)CC3)CC2)c1 (stereo not drawn) [Example 314] | 949% |  |
